For experiment [1], the system named is blowfly larvae (Lucilia cuprina). In words: Blowfly larval bioassay. The format is in vivo. To be noted: for Blowfly bioassay, pupation, IC50: L. cuprina LS strain, number of pupae on Day 9 vs controls, 2 experiments; for Pupation IC50 relative to larval weight gain IC50: ratio of the two bioassay IC50 values; for Insecticidal activity in the blowfly bioassay (in words): blowfly larval bioassay.

Experiment [2] concerns HDAC activity of nuclear extracts from blowfly eggs. In words: Fluorometric HDAC enzyme assay with nuclear extracts from blowfly eggs. The following applies: blowfly egg nuclear extract IC50 comparison. It is filed as biochemical, Lucilia cuprina.
Setting [3] is: larval bioassay IC50 comparison.

23 molecules from publication PMC5247571 (International Journal for Parasitology: Drugs and Drug …, 2017) can be followed below.

On to `CCCC(=O)OCOC(=O)C(C)(C)C` [AN-9], for which the “Blowfly bioassay, pupation, IC50” value in experiment [1] is on record as over 1000 μg/assay. Regarding `CCC(=O)CCCCC[C@@H]1NC(=O)[C@H]2CCCCN2C(=O)[C@H]([C@@H](C)CC)NC(=O)[C@H](Cc2cn(OC)c3ccccc23)NC1=O` [Apicidin], in experiment [1], the “Blowfly bioassay, pupation, IC50” value was 489 μg/assay and the “Pupation IC50 relative to larval weight gain IC50” value came out at 6 fold. Regarding `O=C(/C=C/c1cccc(S(=O)(=O)Nc2ccccc2)c1)NO` [Belinostat], the “Blowfly bioassay, pupation, IC50” value in experiment [1] is over 1000 μg/assay. On the same count and under the same terms, to `C#Cc1cccc(Nc2ncnc3cc(OC)c(OCCCCCCC(=O)NO)cc23)c1` [CUDC-101] belongs over 1000 μg/assay. `COc1ccc(-c2nc(N3CCOCC3)c3sc(CN(C)c4ncc(C(=O)NO)cn4)cc3n2)cn1` [CUDC-907]: in experiment [1], the “Blowfly bioassay, pupation, IC50” value came to 13.8 μg/assay and the “Pupation IC50 relative to larval weight gain IC50” value is listed as “approximately equal”. Moreover, the “Potency against blowfly larval growth relative to cyromazine (fold less potent)” value in experiment [1] (setting [3]) is on record as “approximately 10 fold”.

Consider `Nc1nc(N)nc(NC2CC2)n1` [Cyromazine], for which the “Blowfly bioassay, pupation, IC50” value in experiment [1] is given as 1.54 μg/assay. The same measure, in the same setting: to `N#Cc1c(N)nc(NC2CC2)nc1N` [Dicyclanil] belongs 0.0634 μg/assay. Same read-out and setting: to `O=C(NC(=O)c1c(F)cccc1F)Nc1ccc(Cl)cc1` [Diflubenzuron] belongs 0.119 μg/assay; to `Nc1ccccc1NC(=O)c1ccc(CNC(=O)OCc2cccnc2)cc1` [Entinostat], 640 μg/assay; to `CCN(CC)Cc1ccc2cc(COC(=O)Nc3ccc(C(=O)NO)cc3)ccc2c1` [Givinostat], over 1000 μg/assay. Regarding `Nc1ccccc1NC(=O)c1ccc(CNc2nccc(-c3cccnc3)n2)cc1` [Mocetinostat], in experiment [1], the “Blowfly bioassay, pupation, IC50” value is over 1000 μg/assay. Still for that read-out and setting: to `CCCCN(Cc1ccc(C(=O)NO)cc1)C(=O)Nc1ccccc1` [Nexturostat, Nexturastat A] belongs over 1000 μg/assay; to `Cc1[nH]c2ccccc2c1CCNCc1ccc(/C=C/C(=O)NO)cc1` [Panobinostat], 393 μg/assay. With `C=C1C(=O)O[C@H]2[C@H]1CC/C(C)=C/CC[C@@]1(C)O[C@@H]21` [Parthenolide, parthenolide], in experiment [1], the “Blowfly bioassay, pupation, IC50” value is on record as over 1000 μg/assay and the “Insecticidal activity in the blowfly bioassay (in words)” value (from here on “Insecticidal activity”) is “no insecticidal activity”.

Take `CCCCc1nc2cc(/C=C/C(=O)NO)ccc2n1CCN(CC)CC` [Pracinostat]: in experiment [1], the “Blowfly bioassay, pupation, IC50” value is reported as over 1000 μg/assay. Still for that read-out and setting: to `O=C(NCCSSCCNC(=O)/C(Cc1ccc(O)c(Br)c1)=N/O)/C(Cc1ccc(O)c(Br)c1)=N/O` [Psammaplin A] belongs 93.4 μg/assay; to `Cn1cc(CNCC2CCN(c3ncc(C(=O)NO)cn3)CC2)c2ccccc21` [Quisinostat], 274 μg/assay. Still for that read-out and setting: to `CN(C)Cc1ccc(S(=O)(=O)n2ccc(/C=C/C(=O)NO)c2)cc1` [Resminostat] belongs over 1000 μg/assay.

In the case of `C/C=C1\NC(=O)[C@H]2CSSCC/C=C/[C@H](CC(=O)N[C@H](C(C)C)C(=O)N2)OC(=O)[C@H](C(C)C)NC1=O` [Romidepsin], in experiment [2], the “Potency in nuclear extract HDAC assay relative to quisinostat (fold more potent)” value is “approximately 600 fold”. Further, in experiment [1], the “Blowfly bioassay, pupation, IC50” value is listed as 0.196 μg/assay and the “Pupation IC50 relative to larval weight gain IC50” value is on record as at most 2 fold. Besides, the “Potency against blowfly larval growth relative to cyromazine (fold more potent)” value in experiment [1] (setting [3]) came to 10 fold. Also, the “Potency against blowfly larval growth relative to dicyclanil” value in experiment [1] (larval bioassay IC50 comparison, in words) is listed as “equipotent”. For `CC(/C=C/C(=O)NO)=C\[C@@H](C)C(=O)c1ccc(N(C)C)cc1` [Trichostatin], in experiment [1], the “Blowfly bioassay, pupation, IC50” value turned out to be 20.6 μg/assay and the “Pupation IC50 relative to larval weight gain IC50” value is listed as at most 2 fold. Further, in experiment [1] (setting [3]), the “Potency against blowfly larval growth relative to cyromazine (fold less potent)” value was “approximately 10 fold”. As to `O=C(CCCCCCC(=O)Nc1ccc([C@H]2O[C@@H](CSc3nc(-c4ccccc4)c(-c4ccccc4)o3)C[C@@H](c3ccc(CO)cc3)O2)cc1)NO` [Tubacin], in experiment [1], the “Blowfly bioassay, pupation, IC50” value is on record as over 1000 μg/assay and the “Insecticidal activity” value was “inactive”.

As to `CN1CCc2c(c3ccccc3n2Cc2ccc(C(=O)NO)cc2)C1` [Tubastatin A], in experiment [1], the “Blowfly bioassay, pupation, IC50” value is over 1000 μg/assay and the “Insecticidal activity” value is “inactive”. For the molecule `CCCC(CCC)C(=O)O` [Valproic acid], the “Blowfly bioassay, pupation, IC50” value in experiment [1] is over 1000 μg/assay.
